Results as given in the NIST ThermoML archive (doi:10.1016/j.jct.2016.05.006).
Where “and” joins values, the source holds several entries; their conditions need not be identical. Equal values may be shown once.

Conditions: Liquid, Vibrating tube method

OCC(O)CO [glycerol]
mass density
Conditions	298.15 K	303.15 K	308.15 K	313.15 K	318.15 K	328.15 K	338.15 K	348.15 K
100 kPa	1258.4 kg/m3 and 1259.1 kg/m3	1255.7 kg/m3	1252.9 kg/m3 and 1253 kg/m3	1250.1 kg/m3	1247 kg/m3	1240.9 kg/m3	1234.8 kg/m3	1228.7 kg/m3
5000 kPa	1260.7 kg/m3 and 1260.6 kg/m3	1257.8 kg/m3	1254.9 kg/m3 and 1254.6 kg/m3	1251.8 kg/m3	1248.5 kg/m3	1242.5 kg/m3	1236.4 kg/m3	1230.4 kg/m3
10000 kPa	1262.3 kg/m3 and 1262.1 kg/m3	1259.3 kg/m3	1256.3 kg/m3 and 1256.1 kg/m3	1253.4 kg/m3	1250.1 kg/m3	1244.1 kg/m3	1238.1 kg/m3	1232.1 kg/m3
15000 kPa	1263.7 kg/m3 and 1263.6 kg/m3	1260.8 kg/m3	1257.9 kg/m3 and 1257.6 kg/m3	1254.9 kg/m3	1251.6 kg/m3	1245.6 kg/m3	1239.6 kg/m3	1233.6 kg/m3
20000 kPa	1265.2 kg/m3 and 1265.1 kg/m3	1262.3 kg/m3	1259.4 kg/m3 and 1259.1 kg/m3	1256.4 kg/m3	1253.2 kg/m3	1247.2 kg/m3	1241.3 kg/m3	1235.3 kg/m3
25000 kPa	1266.6 kg/m3 and 1266.5 kg/m3	1263.7 kg/m3	1260.8 kg/m3 and 1260.6 kg/m3	1257.9 kg/m3	1254.7 kg/m3	1248.8 kg/m3	1242.9 kg/m3	1237.1 kg/m3
